Experimental findings from patent US9353081B2, “Bicyclic dihydroquinoline-2-one derivatives” (Hoffmann-La Roche Inc., priority 2011, dated 2016) are described below.

One assay addresses human CYP11B1 (Homo sapiens (Human), UniProt P15538). Description: G-402 cellular enzyme assay, human CYP11B1 (cortisol release, HTRF). Format: cell-based. As to conditions: G-402 cells expressing human CYP11B1; 1 μM Deoxycortisol. The text has this:
(§1) Specifically we developed stable G-402 cells expressing ectopically human CYP11B1, human CYP11B2, human CYP11A1, cynomolgus CYP11B1 or cynomolgus CYP11B2 enzyme activity.
(§2) The expression plasmids contains the ORF for either human/cyno CYP11B1 or CYP11B2 under the control of a suitable promoter (CMV-promoter) and a suitable resistance marker (neomycin). Using standard techniques the expression plasmid is transfected into G-402 cells and these cells are then selected for expressing the given resistance markers. Individual cell-clones are then selected and assessed for displaying the desired enzymatic activity using 11-Deoxycorticosterone (Cyp11B2) or 11-Deoxycortisol (Cyp11B1) as a substrate.
(§3) For assaying enzymatic activity, cells were plated onto 96 well plates and incubated for 16 h. An aliquot of the supernatant is then transferred and analyzed for the concentration of the expected product (Aldosterone for CYP11B2; Cortisol for CYP11B1). The concentrations of these steroids can be determined using HTRF assays from CisBio analyzing either Aldosterone or Cortisol.
(§4) Inhibition of the release of produced steroids can be used as a measure of the respective enzyme inhibition by test compounds added during the cellular enzyme assay. The dose dependent inhibition of enzymatic activity by a compound is calculated by means of plotting added inhibitor concentrations x-axes) vs. measured steroid/product level (y-axes). The inhibition is then calculated by fitting the following 4-parameter sigmoidal function (Morgan-Mercer-Flodin (MMF) model) to the raw data points using the least squares method:
(§5) [formula] wherein, A is the maximum y value, B is the EC50 factor determined using XLFit, C is the minimum y value and D is the slope value.
(§6) EC50 values for compounds claimed herein were tested with the G402-based assay system described. Cyp11B2 enzyme activity was tested in presence of 1 μM Deoxycorticosterone and variable amounts of inhibitors; Cyp11B1 enzyme activity was tested in presence of 1 μM Deoxycortisol and variable amounts of inhibitors.
For orientation: In TR-FRET formats the signal depends on donor and acceptor labels being close together.

In another assay the target is human CYP11B2 (Homo sapiens (Human), UniProt P19099). Kind of assay: G-402 cellular enzyme assay, human CYP11B2 (aldosterone release, HTRF). It counts as cell-based. To be noted: G-402 cells expressing human CYP11B2; 1 μM Deoxycorticosterone.
Sequence of human CYP11B2 (P19099 25-503): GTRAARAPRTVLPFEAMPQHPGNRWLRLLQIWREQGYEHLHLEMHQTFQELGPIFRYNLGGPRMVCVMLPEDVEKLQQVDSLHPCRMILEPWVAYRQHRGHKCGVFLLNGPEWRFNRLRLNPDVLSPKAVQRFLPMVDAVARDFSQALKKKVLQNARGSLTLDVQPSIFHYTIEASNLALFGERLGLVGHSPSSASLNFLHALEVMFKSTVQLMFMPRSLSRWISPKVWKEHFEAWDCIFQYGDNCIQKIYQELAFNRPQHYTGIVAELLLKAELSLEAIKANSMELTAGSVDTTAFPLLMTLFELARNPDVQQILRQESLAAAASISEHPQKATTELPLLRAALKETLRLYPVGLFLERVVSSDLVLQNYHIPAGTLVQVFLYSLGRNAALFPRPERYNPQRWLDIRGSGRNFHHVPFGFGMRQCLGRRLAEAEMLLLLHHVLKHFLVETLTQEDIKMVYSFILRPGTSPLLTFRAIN
From the text: as §1, §2, §3, §4, §5, §6

Sequence of human CYP11B1 (P15538 25-503): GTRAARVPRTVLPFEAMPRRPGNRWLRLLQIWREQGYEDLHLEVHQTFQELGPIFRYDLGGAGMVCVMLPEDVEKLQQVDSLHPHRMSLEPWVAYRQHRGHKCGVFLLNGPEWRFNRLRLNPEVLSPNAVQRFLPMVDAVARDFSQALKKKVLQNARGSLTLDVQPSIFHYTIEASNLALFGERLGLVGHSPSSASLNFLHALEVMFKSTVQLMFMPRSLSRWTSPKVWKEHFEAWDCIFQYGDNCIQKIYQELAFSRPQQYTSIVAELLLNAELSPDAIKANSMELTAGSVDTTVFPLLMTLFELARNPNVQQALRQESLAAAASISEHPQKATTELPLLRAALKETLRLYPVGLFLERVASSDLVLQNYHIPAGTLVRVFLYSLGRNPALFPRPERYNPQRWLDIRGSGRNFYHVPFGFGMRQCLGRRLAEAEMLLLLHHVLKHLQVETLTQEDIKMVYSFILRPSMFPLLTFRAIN

In the case of `CCC(=O)NC1CCCc2c(-c3ccc4c(c3)CCC(=O)N4C)cncc21` (racemic) [Example 1, (rac)-N-(4-(1-Methyl-2-oxo-1,2,3,4-tetrahydroquinolin-6-yl)-5,6,7,8-tetrahydroisoquinolin-8-yl)propionamide], the results for the EC50 at human CYP11B1 and at human CYP11B2 were 2.37 µM and 0.03 µM, respectively.
With `CCS(=O)(=O)NC1CCCc2c(-c3ccc4c(c3)CCC(=O)N4C)cncc21` (racemic) [Example 4, (rac)-N-(4-(1-Methyl-2-oxo-1,2,3,4-tetrahydroquinolin-6-yl)-5,6,7,8-tetrahydroisoquinolin-8-yl)ethanesulfonamide], the EC50 (as a rule, the concentration at which the effect is half-maximal) is 4.92 µM at human CYP11B1 and 0.097 µM at human CYP11B2.
On the same counts, the results for `CCC(=O)NC1CCc2c(-c3ccc4c(c3)CCC(=O)N4C)cncc21` (racemic) [Example 7, (rac)-N-(4-(1-Methyl-2-oxo-1,2,3,4-tetrahydroquinolin-6-yl)-6,7-dihydro-5H-cyclopenta[c]pyridin-7-yl)propionamide] are 1.11 µM and 0.012 µM.
On the same counts, the results for `CCS(=O)(=O)NC1CCc2c(-c3ccc4c(c3)CCC(=O)N4C)cncc21` (racemic) [Example 10, (rac)-N-(4-(1-Methyl-2-oxo-1,2,3,4-tetrahydroquinolin-6-yl)-6,7-dihydro-5H-cyclopenta[c]pyridin-7-yl)ethanesulfonamide] are 4.17 µM and 0.059 µM.
On the same counts, the results for `CCC(=O)NC1CCc2c(-c3cc4c(cc3F)N(C)C(=O)CC4)cncc21` (racemic) [Example 22, (rac)-N-(4-(7-Fluoro-1-methyl-2-oxo-1,2,3,4-tetrahydroquinolin-6-yl)-6,7-dihydro-5H-cyclopenta[c]pyridin-7-yl)propionamide] are 1.2 µM and 0.0102 µM.
On to `CCS(=O)(=O)NC1CCc2c(-c3cc4c(cc3F)N(C)C(=O)CC4)cncc21` (racemic) [Example 25, (rac)-N-(4-(7-Fluoro-1-methyl-2-oxo-1,2,3,4-tetrahydroquinolin-6-yl)-6,7-dihydro-5H-cyclopenta[c]pyridin-7-yl)ethanesulfonamide], for which the EC50 at human CYP11B1 is 2.98 µM; on human CYP11B2 it was 0.0334 µM.
On the same counts, the results for `CCC(=O)NC1CCCc2c(-c3cc4c(cc3F)N(C)C(=O)CC4)cncc21` (racemic) [Example 28, (rac)-N-[4-(7-Fluoro-1-methyl-2-oxo-1,2,3,4-tetrahydro-quinolin-6-yl)-5,6,7,8-tetrahydroisoquinolin-8-yl]-propionamide] are 6.82 µM and 0.0749 µM.
On the same counts, the results for `CCC(=O)NC1CCCc2c(-c3cc(Cl)c4c(c3)CCC(=O)N4C)cncc21` (racemic) [Example 33, (rac)-N-[4-(8-Chloro-1-methyl-2-oxo-1,2,3,4-tetrahydro-quinolin-6-yl)-5,6,7,8-tetrahydro-isoquinolin-8-yl]-propionamide] are 11.6 µM and 0.0798 µM.
With `CCS(=O)(=O)NC1CCCc2c(-c3cc4c(cc3Cl)N(C)C(=O)CC4)cncc21` (racemic) [Example 34, (rac)-Ethanesulfonic acid [4-(7-chloro-1-methyl-2-oxo-1,2,3,4-tetrahydro-quinolin-6-yl)-5,6,7,8-tetrahydro-isoquinolin-8-yl]-amide], the results for the EC50 on human CYP11B1 and on human CYP11B2 were 34.7 µM and 0.386 µM, respectively.
On the same counts, the results for `CCS(=O)(=O)NC1CCCc2c(-c3cc(F)c4c(c3)CCC(=O)N4C)cncc21` (racemic) [Example 36, (rac)-Ethanesulfonic acid [4-(8-fluoro-1-methyl-2-oxo-1,2,3,4-tetrahydro-quinolin-6-yl)-5,6,7,8-tetrahydro-isoquinolin-8-yl]-amide] are 20.7 µM and 0.239 µM.
On the same counts, the results for `CCS(=O)(=O)NC1CCCc2c(-c3cc(Cl)c4c(c3)CCC(=O)N4C)cncc21` (racemic) [Example 37, (rac)-Ethanesulfonic acid [4-(8-chloro-1-methyl-2-oxo-1,2,3,4-tetrahydro-quinolin-6-yl)-5,6,7,8-tetrahydro-isoquinolin-8-yl]-amide] are 13.5 µM and 0.199 µM.
On the same counts, the results for `CCC(=O)NC1CCc2c(-c3cc(Cl)c4c(c3)CCC(=O)N4C)cncc21` (racemic) [Example 58, (rac)-N-(4-(8-Chloro-1-methyl-2-oxo-1,2,3,4-tetrahydroquinolin-6-yl)-6,7-dihydro-5H-cyclopenta[c]pyridin-7-yl)propionamide] are 7.6 µM and 0.0446 µM.
Regarding `CN1C(=O)CCc2cc(-c3cncc4c3CCCC4O)ccc21` (racemic) [Example 67, (rac)-6-(8-Hydroxy-5,6,7,8-tetrahydro-isoquinolin-4-yl)-1-methyl-3,4-dihydroquinolin-2(1H)-one], the EC50 amounted to 0.206 µM on human CYP11B1 and 0.0047 µM on human CYP11B2.
Take `CCC(=O)NC1CCCc2c(-c3cc4c(cc3Cl)N(C)C(=O)CC4)cncc21` (single isomer, unassigned) [Example 35, N—[(R or S)-4-(7-Chloro-1-methyl-2-oxo-1,2,3,4-tetrahydro-quinolin-6-yl)-5,6,7,8-tetrahydro-isoquinolin-8-yl]-propionamide]: the EC50 on human CYP11B2 was 1.77 µM.
`CCC(=O)N[C@H]1c2cncc(-c3ccc4c(c3)CCC(=O)N4C)c2CC[C@@H]1C` (single isomer, unassigned) [Example 42, (+)-N-[(7S,8R or 7R,8S)-7-Methyl-4-(1-methyl-2-oxo-1,2,3,4-tetrahydro-quinolin-6-yl)-5,6,7,8-tetrahydro-isoquinolin-8-yl]-propionamide]: the figures for the EC50 at human CYP11B1 and on human CYP11B2 were 0.524 µM and 0.0145 µM, respectively.
On the same counts, the results for `CCC(=O)N[C@@H]1c2cncc(-c3cc4c(cc3F)N(C)C(=O)CC4)c2CC[C@@H]1C` (single isomer, unassigned) [Example 43, (−)-N-[(7S,8S or 7R,8R)-4-(7-Fluoro-1-methyl-2-oxo-1,2,3,4-tetrahydro-quinolin-6-yl)-7-methyl-5,6,7,8-tetrahydro-isoquinolin-8-yl]-propionamide] are 32 µM and 0.452 µM.
In the case of `CCC(=O)N[C@@H]1c2cncc(-c3ccc4c(c3)CCC(=O)N4C)c2CC[C@H]1C` (single isomer, unassigned) [Example 47, (−)-N-[(7R,8S or 7S,8R)-7-Methyl-4-(1-methyl-2-oxo-1,2,3,4-tetrahydro-quinolin-6-yl)-5,6,7,8-tetrahydro-isoquinolin-8-yl]-propionamide], a half-maximal response at human CYP11B2 (EC50) required 1.82 µM.
Same read-out and setting: then `CCC(=O)N[C@@H]1c2cncc(-c3ccc4c(c3)CCC(=O)N4C)c2CC[C@H]1F` (single isomer, unassigned) [Example 50, (−)-N-[(7R,8R or 7S,8S)-7-Fluoro-4-(1-methyl-2-oxo-1,2,3,4-tetrahydro-quinolin-6-yl)-5,6,7,8-tetrahydro-isoquinolin-8-yl]-propionamide], with 4.32 µM.
On the same count and under the same terms, the figure for `CCC(=O)NC1CCc2c(-c3cc4c(cc3F)N(C)C(=O)CC4)cncc21` (single isomer, unassigned; (-)) [Example 23, (−)-(S or R)—N-(4-(7-Fluoro-1-methyl-2-oxo-1,2,3,4-tetrahydroquinolin-6-yl)-6,7-dihydro-5H-cyclopenta[c]pyridin-7-yl)propionamide] is 1.38 µM; for `CCS(=O)(=O)NC1CCc2c(-c3cc4c(cc3F)N(C)C(=O)CC4)cncc21` (single isomer, unassigned; (-)) [Example 26, (−)-(S or R)—N-(4-(7-Fluoro-1-methyl-2-oxo-1,2,3,4-tetrahydroquinolin-6-yl)-6,7-dihydro-5H-cyclopenta[c]pyridin-7-yl)ethanesulfonamide] it is 4.55 µM.
Still for that read-out and setting: then `CCS(=O)(=O)NC1CCCc2c(-c3cc(Cl)c4c(c3)CCC(=O)N4C)cncc21` (single isomer, unassigned; (-)) [Example 39, (−)-Ethanesulfonic acid [(S or R)-4-(8-chloro-1-methyl-2-oxo-1,2,3,4-tetrahydro-quinolin-6-yl)-5,6,7,8-tetrahydro-isoquinolin-8-yl]-amide], with 0.13 µM; and `CCC(=O)NC1CCCc2c(-c3cc(Cl)c4c(c3)CCC(=O)N4C)cncc21` (single isomer, unassigned; (-)) [Example 40, (−)-N—[(S or R)-4-(8-Chloro-1-methyl-2-oxo-1,2,3,4-tetrahydro-quinolin-6-yl)-5,6,7,8-tetrahydro-isoquinolin-8-yl]-propionamide], with 0.126 µM.
In turn, `CCC(=O)NC1CCc2c(-c3cc(Cl)c4c(c3)CCC(=O)N4C)cncc21` (single isomer, unassigned; (-)) [Example 59, (−)-(S or R)—N-(4-(8-Chloro-1-methyl-2-oxo-1,2,3,4-tetrahydroquinolin-6-yl)-6,7-dihydro-5H-cyclopenta[c]pyridin-7-yl)propionamide] returned an EC50 at human CYP11B2 of 3.29 µM.
